One assay addresses T1, human H3 receptor (Homo sapiens, UniProt Q9Y5N1).
T1 construct: expressed in transfected cells
In words: H3 receptor binding (N-[3H]-α-methylhistamine displacement). The note with it: membranes of SK-N-MC cells expressing cloned human H3 receptor, 0.8 nM N-[3H]-α-methylhistamine, 60 min at 25° C.

Another assay concerns the target T2, Rat SERT (Rattus norvegicus, UniProt P31652).
T2 construct: A rat brain without cerebellum (Zivic Laboratories, Inc.—Pittsburgh, Pa.) was homogenized; tissue Zivic Laboratories, Inc; host or cells: rat brain without cerebellum, membranes
In words: Rat brain SERT binding ([3H]-citalopram displacement). Conditions: rat brain membranes without cerebellum, 0.6 nM [3H]-citalopram, 60 min at 25° C.; read-out: Rat SERT Ki. The protocol: The supernatant was removed and re-centrifuged at 15,000 rpm for 30 min. […] Membranes were incubated with 0.6 nM [^3H]-Citalopram plus/minus test compounds for 60 min at 25° C. and harvested by rapid filtration over GF/C glass fiber filters (pretreated with 0.3% polyethylenimine) followed by four washes with ice-cold buffer.

In a further assay the target is T3, human SERT (Homo sapiens, UniProt P31645).
T3 construct: expressed in transfected cells; host or cells: HEK293 membranes
Briefly: Human SERT binding (3H-citalopram displacement). Conditions: HEK293 membranes expressing human SERT, rt 1 h. The protocol: Homogenized HEK293 (Human Embryonic Kidney) membranes expressing the human SERT were incubated with ^3H-citalopram (SERT) at rt for 1 h in 50 mM Tris, 120 mM NaCl, 5 mM KCl (pH 7.4). […] The membranes were washed and the radioactivity was counted as above.

The Ki is a dissociation constant, usually derived from enzyme kinetics or from competition with a known ligand.

T2 sequence (P31652 whole entry): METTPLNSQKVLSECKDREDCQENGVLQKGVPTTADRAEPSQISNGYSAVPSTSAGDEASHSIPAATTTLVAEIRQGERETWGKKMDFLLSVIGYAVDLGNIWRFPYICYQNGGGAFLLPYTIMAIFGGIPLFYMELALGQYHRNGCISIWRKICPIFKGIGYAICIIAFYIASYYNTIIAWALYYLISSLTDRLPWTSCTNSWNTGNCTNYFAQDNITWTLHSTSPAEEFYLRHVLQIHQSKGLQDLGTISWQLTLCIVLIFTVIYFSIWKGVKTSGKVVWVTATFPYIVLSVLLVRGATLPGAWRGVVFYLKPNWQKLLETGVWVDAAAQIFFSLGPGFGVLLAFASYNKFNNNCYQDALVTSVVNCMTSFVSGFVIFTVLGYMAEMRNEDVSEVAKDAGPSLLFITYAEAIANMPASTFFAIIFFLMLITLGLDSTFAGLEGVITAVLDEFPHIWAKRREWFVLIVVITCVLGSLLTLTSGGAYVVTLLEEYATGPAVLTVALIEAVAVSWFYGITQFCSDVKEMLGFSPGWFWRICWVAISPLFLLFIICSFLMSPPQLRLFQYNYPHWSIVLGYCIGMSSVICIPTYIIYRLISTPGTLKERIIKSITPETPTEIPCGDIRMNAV
T3 sequence (P31645 whole entry): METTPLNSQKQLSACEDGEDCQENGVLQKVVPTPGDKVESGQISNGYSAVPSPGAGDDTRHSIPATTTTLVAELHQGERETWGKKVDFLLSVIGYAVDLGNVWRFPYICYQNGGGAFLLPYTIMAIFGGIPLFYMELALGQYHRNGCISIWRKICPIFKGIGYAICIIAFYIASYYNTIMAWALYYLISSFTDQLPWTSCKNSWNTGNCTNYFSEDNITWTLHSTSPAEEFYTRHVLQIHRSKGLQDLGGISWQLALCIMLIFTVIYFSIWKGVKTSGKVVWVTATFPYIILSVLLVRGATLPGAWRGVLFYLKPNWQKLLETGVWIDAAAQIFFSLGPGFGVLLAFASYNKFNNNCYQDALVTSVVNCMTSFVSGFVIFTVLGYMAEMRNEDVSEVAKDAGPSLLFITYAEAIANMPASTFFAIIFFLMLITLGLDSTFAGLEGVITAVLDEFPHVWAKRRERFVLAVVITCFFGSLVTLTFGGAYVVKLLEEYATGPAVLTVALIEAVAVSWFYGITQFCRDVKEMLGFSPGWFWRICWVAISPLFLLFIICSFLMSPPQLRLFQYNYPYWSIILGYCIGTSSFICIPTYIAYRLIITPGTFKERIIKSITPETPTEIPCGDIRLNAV
T1 sequence (Q9Y5N1 whole entry): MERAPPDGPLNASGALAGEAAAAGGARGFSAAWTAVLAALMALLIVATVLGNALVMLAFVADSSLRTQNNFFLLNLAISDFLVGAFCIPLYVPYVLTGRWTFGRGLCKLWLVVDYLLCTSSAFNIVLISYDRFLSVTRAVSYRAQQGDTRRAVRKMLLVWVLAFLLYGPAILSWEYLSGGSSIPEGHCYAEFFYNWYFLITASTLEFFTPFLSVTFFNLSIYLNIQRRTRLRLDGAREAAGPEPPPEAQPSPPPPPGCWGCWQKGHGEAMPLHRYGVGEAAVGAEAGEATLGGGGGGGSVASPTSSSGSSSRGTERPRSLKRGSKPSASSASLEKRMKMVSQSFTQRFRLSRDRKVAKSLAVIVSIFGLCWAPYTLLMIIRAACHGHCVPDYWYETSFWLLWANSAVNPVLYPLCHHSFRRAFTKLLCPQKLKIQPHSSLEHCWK

In the case of `COc1ccc(C2CN(C)Cc3cc(OCCCN4CCCCC4CO)ccc32)cc1` (stereo not drawn) [Example 24, (1-{3-[4-(4-Methoxy-phenyl)-2-methyl-1,2,3,4-tetrahydro-isoquinolin-7-yloxy]-propyl}-piperidin-2-yl)-methanol], the values for the Ki on human H3 receptor, on Rat SERT and at human SERT were 2 nM, 2 nM and 3 nM, respectively.

As for `COc1ccc(C2CN(C)Cc3cc(OCCCN4CCC(CO)CC4)ccc32)cc1` (stereo not drawn) [Example 22, (1-{3-[4-(4-Methoxy-phenyl)-2-methyl-1,2,3,4-tetrahydro-isoquinolin-7-yloxy]-propyl}-piperidin-4-yl)-methanol], the Ki at human H3 receptor is 11 nM; at Rat SERT, 3 nM; on human SERT, 5 nM.

Turning to `COc1ccc(C2CN(C)Cc3cc(OC4CCN(CCF)CC4)ccc32)cc1` (stereo not drawn) [Example 152, 7-[1-(2-Fluoro-ethyl)-piperidin-4-yloxy]-4-(4-methoxy-phenyl)-2-methyl-1,2,3,4-tetrahydro-isoquinoline], the inhibition constant (Ki) at human H3 receptor is 5 nM; on Rat SERT, 6 nM; on human SERT it was 11 nM.

`COc1ccc(C2CN(C(C)C)Cc3cc(OCCCN4CCCCC4)ccc32)cc1` (stereo not drawn) [Example 68, 2-Isopropyl-4-(4-methoxy-phenyl)-7-(3-piperidin-1-yl-propoxy)-1,2,3,4-tetrahydro-isoquinoline]: the Ki at human H3 receptor was found to be 1 nM; on Rat SERT it was 22 nM; on human SERT it was 89 nM.

Turning to `CCCN1CCC(COc2ccc3c(c2)CN(C)CC3c2ccc(OC)c(F)c2)CC1` (stereo not drawn) [Example 112, 4-(3-Fluoro-4-methoxy-phenyl)-2-methyl-7-(1-propyl-piperidin-4-ylmethoxy)-1,2,3,4-tetrahydro-isoquinoline], the values for the Ki at human H3 receptor, at Rat SERT and on human SERT were 9 nM, 5 nM and 6 nM, respectively.

For `CCOc1ccc(C2CN(C)Cc3cc(OCCCN4CCC(F)CC4)ccc32)cc1` (stereo not drawn) [Example 145, 4-(4-Ethoxy-phenyl)-7-[3-(4-fluoro-piperidin-1-yl)-propoxy]-2-methyl-1,2,3,4-tetrahydro-isoquinoline], the results for the Ki at human H3 receptor, at Rat SERT and at human SERT were 5 nM, 3 nM and 5 nM, respectively.

In the case of `COc1ccc(C2CN(C)Cc3cc(OC4CCN(C5CCOCC5)CC4)ccc32)cc1` (stereo not drawn) [Example 121, 4-(4-Methoxy-phenyl)-2-methyl-7-[1-(tetrahydro-pyran-4-yl)-piperidin-4-yloxy]-1,2,3,4-tetrahydro-isoquinoline], the Ki worked out at 2 nM on human H3 receptor, 10 nM on Rat SERT and 6 nM on human SERT.

As for `CSc1ccc(C2CN(C)Cc3cc(OCCCN4CCC(F)(F)CC4)ccc32)cc1` (stereo not drawn) [Example 216, 7-[3-(4,4-Difluoro-piperidin-1-yl)-propoxy]-2-methyl-4-(4-methylsulfanyl-phenyl)-1,2,3,4-tetrahydro-isoquinoline], the Ki on human H3 receptor turned out to be 22 nM; at Rat SERT, 4 nM; at human SERT it was 8 nM.

With `CCCN1CCC(COc2ccc3c(c2)CN(C)CC3c2ccc(SC)cc2)CC1` (stereo not drawn) [Example 109, 2-Methyl-4-(4-methylsulfanyl-phenyl)-7-(1-propyl-piperidin-4-ylmethoxy)-1,2,3,4-tetrahydro-isoquinoline], the figures for the Ki on human H3 receptor, on Rat SERT and on human SERT were 8 nM, 10 nM and 3 nM, respectively.

Turning to `COc1ccc(C2CN(C)Cc3cc(C#CCCN4CCC(F)(F)CC4)ccc32)cc1` (stereo not drawn) [Example 274, 7-[4-(4,4-Difluoro-piperidin-1-yl)-but-1-ynyl]-4-(4-methoxy-phenyl)-2-methyl-1,2,3,4-tetrahydro-isoquinoline], the Ki at human H3 receptor came to 65 nM; on Rat SERT, 14 nM; at human SERT, 27 nM.

For the compound `COc1ccc(C2CN(C)Cc3cc(OCCCN4CCN(C(=O)c5cn(C)cn5)CC4)ccc32)cc1` (stereo not drawn) [Example 14, (4-{3-[4-(4-Methoxy-phenyl)-2-methyl-1,2,3,4-tetrahydro-isoquinolin-7-yloxy]-propyl}-piperazin-1-yl)-(1-methyl-1H-imidazol-4-yl)-methanone], the Ki on human H3 receptor came to 2000 nM; on Rat SERT, 19 nM; on human SERT, 18 nM.

As to `CSc1ccc(C2CN(C)Cc3cc(OC4CCN(C)CC4)ccc32)cc1` (stereo not drawn) [Example 243, 2-Methyl-7-(1-methyl-piperidin-4-yloxy)-4-(4-methylsulfanyl-phenyl)-1,2,3,4-tetrahydro-isoquinoline], the Ki came out at 22 nM on human H3 receptor, 5 nM at Rat SERT and 6 nM at human SERT.

Consider `COc1cccc(C2CN(C)Cc3cc(OCC4CCN(C(C)C)CC4)ccc32)c1` (stereo not drawn) [Example 91, 7-(1-Isopropyl-piperidin-4-ylmethoxy)-4-(3-methoxy-phenyl)-2-methyl-1,2,3,4-tetrahydro-isoquinoline], for which the figures for the Ki on human H3 receptor, on Rat SERT and on human SERT were 1 nM, 11 nM and 11 nM, respectively.

Turning to `COc1ccc(C2CN(C)Cc3cc(OCCCN4C[C@@H](C)O[C@@H](C)C4)ccc32)cc1` (stereo partly drawn) [Example 32, 7-[3-(2,6-Dimethyl-morpholin-4-yl)-propoxy]-4-(4-methoxy-phenyl)-2-methyl-1,2,3,4-tetrahydro-isoquinoline], the Ki worked out at 21 nM at human H3 receptor, 8 nM at Rat SERT and 9 nM at human SERT.

Regarding `COc1ccc(C2CN(C)Cc3cc(C#CCCN4CCN(C(C)C)CC4)ccc32)cc1` (stereo not drawn) [Example 278, 7-[4-(4-Isopropyl-piperazin-1-yl)-but-1-ynyl]-4-(4-methoxy-phenyl)-2-methyl-1,2,3,4-tetrahydro-isoquinoline], the results for the Ki on human H3 receptor, on Rat SERT and on human SERT were 315 nM, 5 nM and 9 nM, respectively.

As to `CN1Cc2cc(OCCCN3CCC(F)CC3)ccc2C(c2cccc(Cl)c2)C1` (stereo not drawn) [Example 46, 4-(3-Chloro-phenyl)-7-[3-(4-fluoro-piperidin-1-yl)-propoxy]-2-methyl-1,2,3,4-tetrahydro-isoquinoline], the Ki came out at 3 nM at human H3 receptor, 14 nM on Rat SERT and 26 nM at human SERT.

Turning to `COc1ccc(C2CN(C)Cc3cc(OCCCN4CCN(C(=O)c5cccn5C)CC4)ccc32)cc1` (stereo not drawn) [Example 13, (4-{3-[4-(4-Methoxy-phenyl)-2-methyl-1,2,3,4-tetrahydro-isoquinolin-7-yloxy]-propyl}-piperazin-1-yl)-(1-methyl-1H-pyrrol-2-yl)-methanone], the Ki is 2400 nM on human H3 receptor, 10 nM at Rat SERT and 11 nM at human SERT.

As to `CN1Cc2cc(OCCCN3CCC(F)CC3)ccc2C(c2ccc(Sc3ncc[nH]3)nc2)C1` (stereo not drawn) [Example 195, 7-[3-(4-Fluoro-piperidin-1-yl)-propoxy]-4-[6-(1H-imidazol-2-ylsulfanyl)-pyridin-3-yl]-2-methyl-1,2,3,4-tetrahydro-isoquinoline], the Ki came out at 3 nM on human H3 receptor, 8 nM at Rat SERT and 34 nM on human SERT.

`COc1ccc(C2CN(C)Cc3cc(OCC(O)CN4CCCCC4)ccc32)cc1` (stereo not drawn) [Example 42, 1-[4-(4-Methoxy-phenyl)-2-methyl-1,2,3,4-tetrahydro-isoquinolin-7-yloxy]-3-piperidin-1-yl-propan-2-ol]: the Ki at human H3 receptor was found to be 3 nM; on Rat SERT it was 3 nM; at human SERT, 8 nM.

In the case of `CSc1ccc(C2CN(C)Cc3cc(OC4CCN(CCF)CC4)ccc32)cc1` (stereo not drawn) [Example 179, 7-[1-(2-Fluoro-ethyl)-piperidin-4-yloxy]-2-methyl-4-(4-methylsulfanyl-phenyl)-1,2,3,4-tetrahydro-isoquinoline], the figures for the Ki at human H3 receptor, at Rat SERT and at human SERT were 5 nM, 3 nM and 4 nM, respectively.

Take `COc1ccc(C2CN(C)Cc3cc(CCCCN4CCC(F)(F)CC4)ccc32)cc1` (stereo not drawn) [Example 280, 7-[4-(4,4-Difluoro-piperidin-1-yl)-butyl]-4-(4-methoxy-phenyl)-2-methyl-1,2,3,4-tetrahydro-isoquinoline]: the Ki at human H3 receptor worked out at 96 nM; at Rat SERT it was 4 nM; at human SERT, 13 nM.

As to `COc1ccc(C2CN(C)Cc3cc(OC4CCN(C(C)C)CC4)ccc32)cc1` (stereo not drawn) [Example 117, 7-(1-Isopropyl-piperidin-4-yloxy)-4-(4-methoxy-phenyl)-2-methyl-1,2,3,4-tetrahydro-isoquinoline], the Ki on human H3 receptor amounted to 1 nM; on Rat SERT it was 9 nM; at human SERT, 10 nM.

For the compound `COc1ccc(C2CN(C)Cc3cc(OC4CCNCC4)ccc32)cc1` (stereo not drawn) [Example 148, 4-(4-Methoxy-phenyl)-2-methyl-7-(piperidin-4-yloxy)-1,2,3,4-tetrahydro-isoquinoline], the results for the Ki on human H3 receptor, on Rat SERT and on human SERT were 262 nM, 3 nM and 5 nM, respectively.

Consider `C[C@H]1COCCN1CCCOc1ccc2c(c1)CN(C)CC2c1ccc(C#N)cc1` (stereo partly drawn) [Example 135, 4-{2-Methyl-7-[3-(3S-methyl-morpholin-4-yl)-propoxy]-1,2,3,4-tetrahydro-isoquinolin-4-yl}-benzonitrile], for which the Ki at human H3 receptor is 2 nM; at Rat SERT, 27 nM; at human SERT it was 15 nM.

For the compound `CSc1ccc(C2CN(C)Cc3cc(OCCCN4CCOC[C@@H]4C)ccc32)cc1` (stereo partly drawn) [Example 215, 2-Methyl-7-[3-(3S-methyl-morpholin-4-yl)-propoxy]-4-(4-methylsulfanyl-phenyl)-1,2,3,4-tetrahydro-isoquinoline], the Ki on human H3 receptor stood at 5 nM; on Rat SERT, 1 nM; at human SERT, 5 nM.

The record behind these values is patent publication US20060194837A1, “Tetrahydroisoquinoline compounds” (priority 2004, published 2006).
